From patent publication US20240342186A1, “PYRIDINE DERIVATIVES WITH N-LINKED CYCLIC SUBSTITUENTS AS cGAS INHIBITORS” (Boehringer Ingelheim International GmbH, priority 2021, published 2024)
Read-outs that look alike come from different tables or passages of the source.

Assays:
cGAS = cGAS (Homo sapiens (Human), UniProt Q8N884); assay: Human cGAS enzyme assay (hcGAS IC50, in vitro), cGAMP formation by RapidFire MS; assay type: biochemical; settings: biochemical (in vitro) cGAS inhibition;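 note: enzyme activated by 45 bp dsDNA with GTP and ATP (30 µM each), 60 min compound pre-incubation then 90 min reaction, cGAMP relative to cyclic-di-GMP internal standard, 8-point dilutions up to 10 µM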
Sequence of cGAS (Q8N884 whole entry): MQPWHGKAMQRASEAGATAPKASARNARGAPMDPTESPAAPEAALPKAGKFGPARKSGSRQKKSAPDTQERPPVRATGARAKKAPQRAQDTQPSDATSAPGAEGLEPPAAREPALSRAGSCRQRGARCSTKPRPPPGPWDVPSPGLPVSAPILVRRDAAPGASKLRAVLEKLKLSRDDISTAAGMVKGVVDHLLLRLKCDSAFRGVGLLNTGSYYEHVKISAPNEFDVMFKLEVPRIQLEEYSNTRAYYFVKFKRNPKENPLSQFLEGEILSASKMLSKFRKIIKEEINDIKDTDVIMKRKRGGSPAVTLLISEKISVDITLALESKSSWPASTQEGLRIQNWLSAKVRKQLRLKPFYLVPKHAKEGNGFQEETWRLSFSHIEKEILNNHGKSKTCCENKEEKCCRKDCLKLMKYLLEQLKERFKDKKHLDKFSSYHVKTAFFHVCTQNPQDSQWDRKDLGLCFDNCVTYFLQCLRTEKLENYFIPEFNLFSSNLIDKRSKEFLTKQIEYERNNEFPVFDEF

[1] = tested on: cellular cGAS activity in baculovirus-stimulated THP1-Dual cells (IRF dependent Lucia luciferase reporter); assay: Human cGAS cell assay: inhibition of IFN induction in virus-stimulated THP1 cells (THP1(vir) IC50); assay type: cell-based; settings: Homo sapiens, THP1-Dual
Description: (§1) 6.2 Method: Human cGAS Cell Assay and cGAMP Stimulated Counter Cell Assay (THP1(vir) IC50 and THP1(cGAMP) IC50)
(§2) THP1-Dual™ cells (InvivoGen #thpd-nfis) expressing IRF dependent Lucia luciferase reporter were used as basis for both assays. For the detection of cellular cGAS activity cells were stimulated by a baculovirus (pFastbac-1, Invitrogen, no coding insert) infection that delivers the cGAS enzyme stimulating double-stranded DNA (measurement of THP1(vir) IC50).
(§3) For the counter assay, cells were stimulated by cGAMP (SigmaAldrich #SML1232) to activate the identical pathway independent and directly downstream of cGAS (measurement of THP1(cGAMP) IC50). Pathway activity was monitored by measuring the Lucia luciferase activity induced by either DNA stimulated cGAS enzyme activity (measurement of THP1(vir) IC50) or by cGAMP directly (measurement of THP1(cGAMP) IC50, counter assay).
(§4) Compounds were delivered in 10 mM DMSO solution, serially diluted and transferred to the 384 well assay plate (Greiner #781201) using an Echo acoustic dispenser. Typically, 8 concentrations were used with the highest concentration at 10 μM in the final assay volume followed by ˜1:5 dilution steps. DMSO concentration was set to 1% in the final assay volume. The 384 well assay plate contained 21 test compounds (column 1-22), and DMSO in column 23 and 24.
(§5) Cells, cultivated according to manufacturer conditions, were harvested by centrifugation at 300 g/10 min and were then resuspended and diluted to 1.66E5 cells/ml in fresh cell culture medium (RPMI 1640 (Gibco #A10491-01), 10% FCS (Gibco #10500), 1× GlutaMax (Gibco #35050-061), 1× Pen/Strep solution (Gibco #15140-122), 100 μg/ml Normocin (InvivoGen #ant-nr), 100 μg/ml Zeocin (InvivoGen #ant-zn), 10 μg/ml Blasticidin S (Life Technologies #A11139-03)). The baculovirus solution was then added 1:200 (have varied according to virus batch) to the cells (measurement of THP1(vir) IC50).
(§6) 30 μL of the cell/virus-mix were added to each well of the compound plate from column 1-23 via MultiDrop Combi dispenser (5000 cells/well). In column 24, 30 μl/5000 cells/well without virus were added as a low control.
(§7) The plates were then incubated for 18 h at 37° C. in a humidified incubator.
(§8) Following that, 15 μl of QuantiLuc detection reagent (InvivoGen #rep-qlcg5) were added to each well using a MultiDrop Combi. Measurement was done immediately after the addition using an EnVision reader (US-luminescence read-mode).
(§9) For data evaluation and calculation, the measurement of the low control was set as 0% control and the measurement of the high control was set as 100% control. The IC50 values were calculated using the standard 4 parameter logistic regression formula. Calculation: [y=(a−d)/(1+(x/c)^b)+d], a=low value, d=high value; x=conc M; c=IC50 M; b=slope

[2] = tested on: cGAMP-stimulated THP1-Dual cells (pathway directly downstream of cGAS); assay: cGAMP stimulated counter cell assay: inhibition of IFN induction in cGAMP-stimulated THP1 cells (THP1(cGAMP) IC50); assay type: cell-based, human; settings: for IC50: Homo sapiens, THP1-Dual; for Ratio THP1(cGAMP) IC50 / THP1(vir) IC50: selectivity for cGAS inhibition
Description: as §1, §2, §3, §4, §5, §6, §7, §8, §9

[3] = tested on: cellular cGAS activity in dsDNA-stimulated human whole blood; assay: Human whole blood assay (hWB IC50): IFNα2α production after dsDNA transfection; assay type: cell-based; settings: inhibition of IFN induction in dsDNA-stimulated human whole blood
Protocol: 6.3 Method: Human Whole Blood Assay (Human WB IC50)
For the detection of cellular cGAS activity human whole blood was stimulated by transfection with double stranded DNA. Pathway activity was monitored by measuring the IFNα2α production.
Compounds were delivered as 10 mM DMSO solution and serially diluted and transferred to the 96-well cell culture plate (Corning #3595), prefilled with 20 μl OptiMEM (Gibco, #11058-021) in each well, using an Echo acoustic dispenser. Typically, 8 concentrations were used with the highest concentration at 10 µM in the final assay volume followed by ˜1:5 dilution steps. DMSO concentration was set to 0.1% in the final assay volume. The 96-well assay plate contained 10 test compounds, and DMSO in control wells.
Collection of human whole blood from 3 or more healthy donors (male or female, no medication for 7 days except contraceptive and thyroxine) as Na-Citrate blood (e.g. 3.8% in Monovettes from Sarstedt) was conducted in parallel. Whole blood was kept at room temperature for a maximum of 3 hours after collection until use in the assay.
160 μl of the whole blood samples was transferred to each well of the 96-well assay plates filled with compound/OptiMEM. All assay plates were prepared as duplicates with blood from different donors. Blood plates were kept at room temperature for 60 minutes and continuous shaking with 450 rpm, covered with the lid, but not sealed.
20 μl OptiMEM and 9.6:1 Fugene was added to all low control wells.
After covering assay plates with aera seals and the lid, blood plates were kept at room temperature for 30 minutes and continuous shaking with 450 rpm, followed by an overnight incubation of 22 h at 37° C. in the incubator, without shaking.
For the detection of IFNα-2α in human plasma, the biotinylated capture antibody (Antibody set IFNA2, Meso Scale Diagnostics #B21VH-3, including coating and capture antibody) was diluted 1:17.5 in Diluent 100 (Meso Scale Diagnostics #R^50AA-4), according to the manufacturer's directions. U-Plex MSD GOLD 96-well Small Spot Strepavidin SECTOR Plates (Meso Scale Diagnostics #L45SA-5) were coated with 25 μl diluted capture antibody. Coated plates were incubated for 60 min at room temperature under continuous shaking at 700 rpm. MSD IFNα-2α plates were washed three times with 150 μl wash buffer (1x HBSS, 0.05% Tween).
After blocking the plates with 100 μl block solution/well (1x HBSS with 0.2% Tween, 2% BSA) for 60 min at room temperature and continuous shaking at 700 rpm, plates were emptied as dry as possible by dumping just before continuing with the human plasma.
Whole Blood assay plates were centrifuged at 1600 rpm for 10 minutes. 25 μl of supernatant was transferred with a pipetting robot from each whole blood plate to the corresponding IFNα-2α plate. Plates were sealed with microplate seals and kept at room temperature again under continuous shaking at 700 rpm for two hours.
Next MSD IFNα-2α plates were washed three times with 150 μl wash buffer (1×HBSS, 0.05% Tween), before adding 25 μl MSD SULFO-TAG IFNα-2α Antibody solution (1:100 diluted in Diluent 3 (Meso Scale Diagnostics #R50AP-2) to each well of the plates.
Afterwards plates were sealed with microplate seals and kept at room temperature again under continuous shaking at 700 rpm for two hours. Finally, MSD IFNα-2α plates were washed three times with 150 μl wash buffer (1×HBSS, 0.05% Tween). 150 μl 2× Read buffer was added to each well and plates were immediately measured with the MSD Sector S600 Reader using the vendor barcode.
For data evaluation and calculation, % control calculation of each well was based on the mean of high (DNA stimulated control) and mean of low (unstimulated control) controls by using the following formula:
[counts(sample)−counts(low))/(counts(high)−counts(low))]*100
The IC50 values were calculated using the standard 4 parameter logistic regression formula. Calculation: [y=(a−d)/(1+(x/c)^b)+d], a=low value, d=high value; x=conc M; c=IC50 M; b=slope

[4] = inhibition of IFN induction in virus-stimulated THP1 cells, read-out: THP1(vir) IC50
[5] = inhibition of IFN induction in cGAMP-stimulated THP1 cells, read-out: THP1(cGAMP) IC50 (converted)
[6] = read-out: THP1(vir) IC50, inhibition of IFN induction in virus-stimulated THP1 cells
[7] = cGAMP-stimulated THP1 cells, counter assay, read-out: THP1(cGAMP) IC50 (converted)
[8] = read-out: THP1(vir) IC50, virus-stimulated THP1 cells, IFN induction

SMILES | IC50 (cGAS) [nM] | IC50 [1, 4] [nM] | IC50 [2, 5] [nM] | Ratio THP1(cGAMP) IC50 / THP1(vir) IC50 [2] | IC50 [3] [nM] | also measured
CNc1cc(-c2cnc(O[C@H]3C[C@@H](C(=O)O)N(c4nc(C(F)F)nc5c4oc4ccccc45)C3)c(N3CCOC4(COC4)[C@@H]3C)c2)ccn1 [Example 3.08] | 5 | 4 | 4790 | 1179 | 3 | 
O=C(O)[C@@H]1C[C@H](Oc2ncc(Cl)cc2N2CCc3nocc3C2)CN1c1nc(C(F)F)nc2c1oc1ccccc12 [Example 1.08] | 4 | 831 | 18700 | 23 |  | 
C[C@@H]1N(c2cc(-c3ccnc(N(C)C)c3)cnc2O[C@H]2C[C@@H](C(=O)O)N(c3nc(C(F)F)nc4c3oc3ccccc34)C2)CCOC12COC2 [Example 4.01, (2S,4S)-1-[4-(Difluoromethyl)-8-oxa-3,5-diazatricyclo[7.4.0.0^2,7]trideca-1(9),2(7),3,5,10,12-hexaen-6-yl]-4-({N,N-dimethyl-5-[(9S)-9-methyl-2,5-dioxa-8-azaspiro[3.5]nonan-8-yl]-[3,4′-bipyridin]-2′-yl}oxy)pyrrolidine-2-carboxylic acid] |  |  |  |  | 5 | IC50 [1, 6]: < 5 nM; IC50 ([2]; read-out: THP1(cGAMP) IC50): 6680 nM
N#CC1CN(c2cc(Cl)cnc2O[C@H]2C[C@@H](C(=O)O)N(c3nc(C(F)(F)F)nc4c3oc3ccccc34)C2)CCO1 (stereo partly drawn) [Example 1.01, (2S,4S)-4-{[5-Chloro-3-(2-cyanomorpholin-4-yl)pyridin-2-yl]oxy}-1-[4-(trifluoromethyl)-8-oxa-3,5-diazatricyclo[7.4.0.0^2,7]trideca-1(13),2,4,6,9,11-hexaen-6-yl]pyrrolidine-2-carboxylic acid] | 8 | 829 | 24600 | 30 |  | 
C#Cc1cnc(O[C@H]2C[C@@H](C(=O)O)N(c3nc(Cl)nc4c3oc3ccccc34)C2)c(N2CCOC[C@@H]2C)c1 [Example 1.32] | 4 | 487 |  |  |  | 
C#Cc1cnc(O[C@H]2C[C@@H](C(=O)O)N(c3nc(C(F)F)nc4c3oc3ccccc34)C2)c(N2CCOC3(COC3)[C@@H]2C)c1 [Example 1.11] |  | 6 | 18500 |  | 5 | 
Cc1nc(N2C[C@@H](Nc3ccncc3)C[C@H]2C(=O)O)c2oc3ccccc3c2n1 [Example 38, reference compound] |  |  |  |  |  | IC50 [2, 7]: > 17000 nM
CC1(C#N)CCCN(c2cc(Cl)cnc2O[C@H]2C[C@@H](C(=O)O)N(c3nc(C(F)F)nc4c3oc3ccccc34)C2)C1 (stereo partly shown) [Example 1.04] |  | 327 | 10000 | 31 | 3700 | 
Cc1nc(N2C[C@@H](CC(=O)Nc3ccncc3)C[C@H]2C(=O)O)c2oc3ccccc3c2n1 [Example 28, reference compound] |  |  |  |  |  | IC50 [1, 8]: > 32000 nM
C#Cc1cnc(O[C@H]2C[C@@H](C(=O)O)N(c3nc(C)nc4c3oc3ccccc34)C2)c(N2CCOC3(COC3)[C@@H]2C)c1 [Example 2.03] |  | < 5 | 16400 |  | 9 | 
C#Cc1cnc(O[C@H]2C[C@@H](C(=O)O)N(c3nc(C(F)F)nc4c3oc3ccccc34)C2)c(N2CCOC3(COC3)C2)c1 [Example 1.25] |  |  |  | >32 | 551 | IC50 [1, 6]: 517 nM; IC50 ([2]; read-out: THP1(cGAMP) IC50): > 16600 nM
O=C(O)[C@@H]1C[C@H](Oc2ncc(Cl)cc2N2CCc3nocc3C2)CN1c1nc(C(F)(F)F)nc2c1oc1ccccc12 [Example 1.07] | 5 | 781 | 18700 | 24 |  | 
C[C@@H]1OCCN(c2cc(Cl)cnc2O[C@H]2C[C@@H](C(=O)O)N(c3nc(C(F)(F)F)nc4c3oc3ccccc34)C2)[C@H]1C [Example 1.06] | 65 | 951 | 14300 | 15 |  | 
O=C(O)[C@@H]1C[C@H](Oc2ncc(Br)cc2N2CCOC3(COC3)C2)CN1c1nc(C(F)F)nc2c1oc1ccccc12 [Example 1.24] |  | 848 | > 16600 | >20 | 850 | 
C[C@@H]1N(c2cc(-c3cccnc3C#N)cnc2O[C@H]2C[C@@H](C(=O)O)N(c3nc(C(F)(F)F)nc4c3oc3ccccc34)C2)CCOC12COC2 [Example 3.28] | 14 | 712 | 16400 | 23 |  | 
CC(C)(C(=O)N[C@H]1C[C@@H](C(=O)O)N(c2nc(C(F)(F)F)nc3c2oc2ccccc23)C1)c1cn[nH]c1 [Example 58, reference compound] |  |  |  |  |  | IC50 [1, 8]: 21000 nM
Cc1nc(N2CCC[C@H]2C(=O)O)c2oc3ccccc3c2n1 [Example 15, reference compound] |  |  |  |  |  | IC50 [2, 7]: > 17000 nM
